Reference: publication PMC11497106, “GJB2 Promotes HCC Progression by Activating Glycolysis Through Cytoplasmic Translocation and Generating a Suppressive Tumor Microenvironment Based on Single Cell RNA Sequencing” (Advanced Science, 2024)

Target: T1, GJB2 (Gap junction protein beta-2; Connexin 26, Cx26); GFP-GJB2 (Homo sapiens, UniProt P29033)
T1 construct: 7QEQ is printed as human GJB2 for docking only
Assay: microscale thermophoresis (Monolith NT.[…]), GFP-GJB2 in HEK293T lysate
Assay type: binding

Question: For `O=C(/C=C/c1ccc(O)c2c1[C@H](C(=O)O[C@H](Cc1ccc(O)c(O)c1)C(=O)O)[C@@H](c1ccc(O)c(O)c1)O2)O[C@H](Cc1ccc(O)c(O)c1)C(=O)O` [Salvianolic acid B], which Kd is on record?
Answer: 8.52 µM
